From ChEMBL document CHEMBL1201862, “PubChem BioAssay data set” (2004)
The source made the active and inactive calls. Cut-off read from the data, not from the text of the source, for most assays here: actives have a measured EC50 and inactives only a lower limit.

Tests used:
[1] = NIH-3T3 fibroblast cytotoxicity, dose response, cytotoxicity control, cell-based, fluorescence, Alamar Blue, secondary assay (AID 2327); assay type: functional;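 note: NIH-3T3 mouse fibroblasts cultured with fluconazole at 8 µg/mL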
[2] = fluconazole-exposed Candida albicans growth modulators – fluorescence, retest, confirmation (AID 2467); assay type: functional, cell-based
[3] = Luminescence Cell-Based Dose Response HTS to Identify Activators of Luciferase Translation or Activity in H4 […] Cells. [Related pubchem assays: 1829 (Project Summary), 1814 (Primary HTS)]; assay type: functional
[4] = Luminescence Cell-Based Dose Confirmation HTS to Identify Activators of 5'UTR Stem-Loop Driven Alpha-Synuclein mRNA Translation in H4 Neuroglioblastoma Cells. [Related pubchem assays: 1829 (Project Summary), 1814 (Primary HTS)]; assay type: functional
[5] = tested on: H4; test: Luminescence Cell-Based Dose Response HTS to Identify Activators of 5'UTR Stem-Loop Driven Prion Protein mRNA Translation in H4 Neuroglioblastoma Cells. [Related pubchem assays: 1829 (Project Summary), 1814 (Primary HTS)]; assay type: functional; settings: Homo sapiens
[6] = viability of uninfected HEp-2 cells – cell-based, HTS, cytotoxicity control for RSV inhibitor project, dose response (AID 2410); assay type: functional; settings: human respiratory syncytial virus
[7] = target: T1, Calpain-2 catalytic subunit (Sus scrofa, UniProt P43367); test: m-calpain protease blockers, concentration series – biochemical, fluorogenic peptide substrate, dose response (AID 1420); assay type: functional
T1 sequence (P43367 whole entry): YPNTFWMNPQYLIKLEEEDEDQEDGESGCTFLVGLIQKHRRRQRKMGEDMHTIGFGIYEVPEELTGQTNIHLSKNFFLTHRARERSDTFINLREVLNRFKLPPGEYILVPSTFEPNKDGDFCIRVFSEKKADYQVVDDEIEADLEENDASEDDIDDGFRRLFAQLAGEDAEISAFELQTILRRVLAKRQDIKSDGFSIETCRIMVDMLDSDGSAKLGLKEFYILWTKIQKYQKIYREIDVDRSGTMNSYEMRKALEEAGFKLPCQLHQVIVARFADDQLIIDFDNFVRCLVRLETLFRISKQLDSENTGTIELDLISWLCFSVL

[8] = Trypanosoma cruzi growth suppression in host cells – NIH3T3 host cells, beta-gal luminescence, confirmation (AID 2044); assay type: functional, cell-based;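 note: intracellular parasites grown in NIH/3T3 mouse fibroblasts as host cells; luminescent beta-galactosidase reporter signal from transgenic T. cruzi replicating inside host cells; inhibitors lower the luminescence signal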
[9] = NIH3T3 cell viability loss – ATP luminescence, mouse fibroblasts, counter-screen, dose response (AID 2010); assay type: functional, cell-based;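 note: cells exposed to compound for about 90 hours before reading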
[10] = tested on: BJ; test: cells; assay type: functional, cell-based; settings: Homo sapiens
[11] = DRD fibroblast viability loss – cell-based, non-viral oncogenic, luminescence, dose response (AID 1934); assay type: functional; settings: Homo sapiens
[12] = tested on: BJ; test: BJ-TERT-LT-ST fibroblast viability loss – cell-based, RAS-independent, luminescence, dose response (AID 1935); assay type: functional; settings: Homo sapiens;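 note: BJ fibroblasts immortalized with TERT plus LT and ST oncogenes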
[13] = tested on: BJ; test: BJ-TERT fibroblast viability loss – cell-based, RAS-independent, luminescence, dose response (AID 1933); assay type: functional; settings: Homo sapiens
[14] = loss of viability in HepG2 cells – cell-based, CellTiter-Glo, cherry-picked, cytotoxicity control for Shn3 inhibitor project, dose response (AID 624134); assay type: functional
[15] = reduction of Shn3 3'UTR-driven luciferase in osteoblasts – cell-based, Clone20 osteoblasts, firefly luciferase, cherry-picked, dose response (AID 624132); assay type: functional;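 note: firefly luciferase luminescence from reporter carrying the Shn3 3'UTR in osteoblasts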
[16] = non-specific 3'UTR reporter inhibition in Clone20-Shn3RL – cell-based, Renilla luciferase, cherry-picked, counter-screen for Shn3 inhibitor project, dose response (AID 624133); assay type: functional
[17] = viability of PTEN-deleted HCT116 cells – cell-based, HCT116 PTEN knockout, dose response (AID 1047); assay type: functional;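 note: HCT116 colon tumor cells with PTEN knocked out; cells exposed to compound for 60 hours before readout; potency for loss of cell viability measured by luminescence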
[18] = Luminescence Cell-Based Dose Retest to Confirm Inhibitors of Cancer Stem Cells. [Related pubchem assays (depositor defined):AID2717, AID2721]; assay type: functional; settings: Homo sapiens
[19] = tested on: Streptococcus sp. 'group A'; test: Streptococcus pyogenes SK(-)GAS viability under kanamycin – luminescence, BacTiterGlo, confirmation, counter-screen for streptokinase expression inhibitor project, dose response (AID 1900); assay type: functional, organism-based
[20] = tested on: Streptococcus; test: GAS UMAA2166 growth inhibition – luminescence, BacTiterGlo, counter-screen for streptokinase expression inhibitor project, dose response (AID 1915); assay type: functional, organism-based;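 note: potency for reduction of bacterial viability or growth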
[21] = target: T2, Streptokinase A (Streptococcus pyogenes serotype M1, UniProt P10520); test: viability-normalized secreted streptokinase activity reduction – plasminogen activation absorbance, OD405, dose response (AID 1914); assay type: functional, Streptococcus pyogenes M1 GAS;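 note: secreted streptokinase activity via plasminogen activation per viability signal from cell pellet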
T2 sequence (P10520 whole entry): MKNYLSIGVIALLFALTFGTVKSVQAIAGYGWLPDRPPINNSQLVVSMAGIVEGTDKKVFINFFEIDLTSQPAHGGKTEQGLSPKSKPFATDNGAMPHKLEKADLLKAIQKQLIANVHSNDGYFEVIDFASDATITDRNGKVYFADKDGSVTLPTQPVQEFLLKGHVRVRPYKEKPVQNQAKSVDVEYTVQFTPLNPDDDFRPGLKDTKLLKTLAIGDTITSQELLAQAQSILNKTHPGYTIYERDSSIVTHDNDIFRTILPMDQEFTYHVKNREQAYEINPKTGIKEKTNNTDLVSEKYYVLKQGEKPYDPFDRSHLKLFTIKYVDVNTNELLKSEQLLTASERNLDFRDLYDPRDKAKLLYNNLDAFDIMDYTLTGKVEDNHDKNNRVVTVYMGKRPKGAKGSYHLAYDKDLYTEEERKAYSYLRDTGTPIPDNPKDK

**Q.** Which EC50 [1] does the source give for `COc1cc(/C=C2/C(=O)NN(c3ccc(Cl)cc3)C2=O)cc(OC)c1O` here?
**A.** Its EC50 is > 160 µM (inactive).

**Q.** And the EC50 [2]?
**A.** Its EC50 is 2.27 µM (inconclusive).

**Q.** For `CC(C)(C)c1ccc(C(=O)C2CCCN(Cc3ccon3)C2)cc1` (configuration not stated), which EC50 [3] is on record?
**A.** Its EC50 is 18.3 µM (active).

**Q.** And the EC50 [4]?
**A.** Its EC50 is 14.6 µM (active).

**Q.** What about the EC50 [5] of the same molecule?
**A.** The EC50 was 17.2 µM (active).

**Q.** With `CCOc1ccc(NC2=NC(=O)CS2)cc1` as the molecule, how does the CC50 [6] read?
**A.** The CC50 was 24.5 µM (active).

**Q.** Which IC50 [7] does the source give for `CCC(=O)OCC(=O)c1cc(C)n(-c2ccc(Br)cc2)c1C` here?
**A.** The IC50 was 6.49 µM (not active).

**Q.** For `Oc1cccc(Nc2nc(-c3ccccc3)nc3ccccc23)c1`, which CC50 [6] is on record?
**A.** The CC50 was 13.3 µM (active).

**Q.** With `Cc1onc(-c2c(F)cccc2Cl)c1C(=O)NNC(=O)C1CCN(Cc2ccccc2)CC1` as the molecule, how does the EC50 [1] read?
**A.** The EC50 was > 150 µM (inconclusive).

**Q.** And the EC50 [2]?
**A.** Its EC50 is > 38 µM (not active).

**Q.** For `COc1ccc(C(NC(=O)C(C)C)c2c(O)ccc3ccccc23)cc1OC` (configuration not stated), which IC50 [7] is on record?
**A.** Its IC50 is 18.4 µM (not active).

**Q.** For `Oc1nc(-c2ccccn2)nc(C(F)(F)F)c1Br`, which EC50 [8] is on record?
**A.** Its EC50 is 1.86 µM (active).

**Q.** What about the EC50 [1] of the same molecule?
**A.** The EC50 was > 150 µM (inactive).

**Q.** What about the EC50 [9] of the same molecule?
**A.** Its EC50 is 10.9 µM (active).

**Q.** And the EC50 [2]?
**A.** The EC50 was 0.596 µM (active).

**Q.** What does the source list for `CCCC1=Nc2cc(C(=O)NCCCOC(C)C)ccc2Sc2ccccc21`?
**A.** EC50 [10]: 37.8 µM (active); EC50 [11]: 5.1 µM (active); EC50 [12]: 17.2 µM (inconclusive); EC50 [13]: 9.44 µM (inconclusive)

**Q.** For `N#Cc1cc(-c2ccccc2)[nH]c1-c1nccc2ccccc12`, which AC50 [14] is on record?
**A.** The AC50 was 48.7 µM (active).

**Q.** What about the AC50 [15] of the same molecule?
**A.** The AC50 was 3.42 µM (active).

**Q.** And the AC50 [16]?
**A.** The AC50 was 9.62 µM (active).

**Q.** With `O=C(Nc1ccc(-c2nc3ccccc3o2)cc1)c1cccnc1` as the molecule, how does the EC50 [17] read?
**A.** Its EC50 is 23.3 µM (active).

**Q.** Which IC50 [7] does the source give for `Cc1ncsc1CCOC(=O)C1C2CC3CC(C2)CC1C3` (configuration not stated) here?
**A.** The IC50 was 45.8 µM (not active).

**Q.** For `Cc1cccc(OCCNc2cc(N3CCN(CCO)CC3)ccc2[N+](=O)[O-])c1`, which CC50 [6] is on record?
**A.** The CC50 was 15.6 µM (active).

**Q.** With `CC(=O)O[C@@H]1[C@@H](O)[C@@H](O)[C@H](Oc2c(-c3ccc(O)cc3)oc3c(CC=C(C)C)c(O)cc(O)c3c2=O)O[C@H]1C` as the molecule, how does the CC50 [6] read?
**A.** The CC50 was 16.1 µM (active).

**Q.** Which results are given for `O=C(Nc1ccc2c(c1)OCCO2)C(=O)c1c[nH]c2ccccc12`?
**A.** EC50 [10]: 28.3 µM (active); EC50 [11]: 4.19 µM (inconclusive); EC50 [12]: 24.5 µM (inconclusive); AC50 [18]: 0.718 µM (active); EC50 [13]: 14.2 µM (active)

**Q.** For `COc1ccc2nc(N3C(=O)C(O)=C(C(=O)c4ccco4)C3c3ccccc3OC)sc2c1` (configuration not stated), which EC50 [3] is on record?
**A.** The EC50 was > 120 µM (not active).

**Q.** And the EC50 [4]?
**A.** Its EC50 is > 120 µM (not active).

**Q.** And the EC50 [5]?
**A.** The EC50 was 32.4 µM (active).

**Q.** For `CSCCC(NS(=O)(=O)c1ccc(Cl)cc1)C(=O)OCC(=O)N1CCCc2ccccc21` (configuration not stated), which IC50 [7] is on record?
**A.** The IC50 was 14.6 µM (not active).

**Q.** For `CCCCNC(=O)Nc1c(C(=O)OC)[nH]c2ccc(C)cc12`, which EC50 [17] is on record?
**A.** The EC50 was 37.7 µM (active).

**Q.** For `CCN(CC)S(=O)(=O)c1ccc(C(=O)NCc2ccc3c(c2)OCO3)cc1`, which IC50 [7] is on record?
**A.** The IC50 was > 50 µM (not active).

**Q.** Which IC50 [7] does the source give for `Cc1cc(Br)ccc1SCC(=O)OCC(=O)c1c(N)n(C)c(=O)n(C)c1=O` here?
**A.** Its IC50 is 10.8 µM (active).

**Q.** What does the source list for `CC/C(=C/c1ccccc1)c1cccc2[nH]c3c(OC)cccc3c12`?
**A.** EC50 [19]: 1.87 µM (active); EC50 [20]: 4.75 µM (active); AC50 [14]: > 70 µM (inactive); AC50 [15]: 32.8 µM (active); AC50 [16]: 19 µM (active); EC50 [21]: 19.6 µM (active)

**Q.** Which EC50 [19] does the source give for `CCCCCCCCO/C(O)=C1\C(C)=Nc2nnnn2C1c1cccs1` (configuration not stated) here?
**A.** Its EC50 is 2.33 µM (active).

**Q.** What about the EC50 [20] of the same molecule?
**A.** The EC50 was 7.3 µM (active).

**Q.** And the IC50 [7]?
**A.** The IC50 was 3.59 µM (not active).

**Q.** What about the EC50 [21] of the same molecule?
**A.** Its EC50 is > 50 µM (not active).

**Q.** And the AC50 [18]?
**A.** The AC50 was 6.65 µM (active).

**Q.** With `COc1ccc(C(=O)Nc2nc3ccc(OC)cc3s2)cc1` as the molecule, how does the CC50 [6] read?
**A.** The CC50 was 21.5 µM (active).

**Q.** With `COc1ccc(C(=O)Nc2ccc(S(=O)(=O)NC(C)(C)C)cc2)cc1[N+](=O)[O-]` as the molecule, how does the IC50 [7] read?
**A.** The IC50 was 4.14 µM (not active).

**Q.** With `Cc1cc(=O)oc2c(C)c(OCC(=O)N3CCN(c4cccc(Cl)c4)CC3)ccc12` as the molecule, how does the CC50 [6] read?
**A.** The CC50 was 29.2 µM (active).
